Data from patent US9073907B2, “Thiazoles derivatives and their use as positive allosteric modulators of metabotropic glutamate receptors” (Addex Pharma S.A., priority 2009, dated 2015).
“And” between values parts separate entries of the source, which are not always exact repeats. Equal values may be shown once.

Assays:
[1] = target: T1, recombinant human mGluR4a receptors (Homo sapiens, UniProt Q14833); assay: mGluR4 assay on HEK-expressing human mGluR4: fluorescent cell based Ca2+ mobilization assay (FLIPR, Fluo-4); conditions: enhancement of EC25 glutamate response in HEK-293 cells expressing hmGluR4; mean of at least three independent experiments performed in duplicate; read-out: Ca^2+ Flux (mean EC50)
T1 construct: expressed in transfected cells
Text: mGluR4 Assay on HEK-Expressing Human mGluR4 The compounds of the present invention are positive allosteric modulators of mGluR4 receptor. Their activity was examined on recombinant human mGluR4a receptors by detecting changes in intracellular Ca^2+ concentration, using the fluorescent Ca^2+-sensitive dye Fluo-4-(AM) and a Fluorometric Imaging Plate Reader (FLIPR, Molecular Devices, Sunnyvale, Calif.). The cDNA encoding the human metabotropic glutamate receptor (hmGluR4), (accession number NM_000841.1, NCBI Nucleotide database browser), was subcloned into an expression vector containing also the hygromycin resistance gene. In parallel, the cDNA encoding a G protein allowing redirection of the activation signal to intracellular calcium flux was subcloned into a different expression vector containing also the puromycin resistance gene. Transfection of both these vectors into HEK293 cells with PolyFect reagent (Qiagen) according to supplier's protocol, and hygromycin and puromycin treatment allowed selection of antibiotic resistant cells which had integrated stably one or more copies of the plasmids. Positive cellular clones expressing hmGluR4 were identified in a functional assay measuring changes in calcium fluxes in response to glutamate or selective known mGluR4 orthosteric agonists and antagonists. HEK-293 cells expressing hmGluR4 were maintained in media containing DMEM, dialyzed Fetal Calf Serum (10%), Glutamax™ (2 mM), Penicillin (100 units/mL), Streptomycin (100 μg/mL), Geneticin (100 μg/mL) and Hygromycin-B (40 μg/mL) and puromycin (1 μg/mL) at 37° C./5% CO2. Human mGluR4 HEK-293 cells were plated out 24 hours prior to FLIPR^384 assay in black-walled, clear-bottomed, poly-L-ornithine-coated 384-well plates at a density of 25,000 cells/well in a glutamine/glutamate free DMEM medium containing foetal bovine serum (10%), penicillin (100 units/mL) and streptomycin (100 μg/mL) at 37° C./5% CO2. On the day of the assay, the medium was aspirated and the cells were loaded with a 3 μM solution of Fluo4-AM (LuBioScience, Lucerne, Switzerland) in 0.03% pluronic acid. After 1 hour at 37° C./5% CO2, the non incorporated dye was removed by washing cell plate with the assay buffer and the cells were left in the dark at room temperature for […] before testing. All assays were performed in a pH 7.4 buffered-solution containing 20 mM HEPES, 143 mM NaCl, 6 mM KCl, 1 mM MgSO4, 1 mM CaCl2, 0.125 mM sulfapyrazone and 0.1% glucose. After 10 s of basal fluorescence recording, various concentrations of the compounds of the invention were added to the cells. Changes in fluorescence levels were first monitored for 180 s in order to detect any agonist activity of the compounds. Then the cells were stimulated by an EC25 glutamate concentration for an additional 110 s in order to measure enhancing activities of the compounds of the invention. EC25 glutamate concentration is the concentration giving 25% of the maximal glutamate response. The concentration-response curves of representative compounds of the present invention were generated using the Prism GraphPad software (Graph Pad Inc, San Diego, USA). The curves were fitted to a four-parameter logistic equation: (Y=Bottom+(Top−Bottom)/(1+10^((Log EC50−X)*Hill Slope) allowing the determination of EC50 values. The Table 3 below represents the mean EC50 obtained from at least three independent experiments of selected molecules performed in duplicate.

T1 sequence (Q14833 33-912): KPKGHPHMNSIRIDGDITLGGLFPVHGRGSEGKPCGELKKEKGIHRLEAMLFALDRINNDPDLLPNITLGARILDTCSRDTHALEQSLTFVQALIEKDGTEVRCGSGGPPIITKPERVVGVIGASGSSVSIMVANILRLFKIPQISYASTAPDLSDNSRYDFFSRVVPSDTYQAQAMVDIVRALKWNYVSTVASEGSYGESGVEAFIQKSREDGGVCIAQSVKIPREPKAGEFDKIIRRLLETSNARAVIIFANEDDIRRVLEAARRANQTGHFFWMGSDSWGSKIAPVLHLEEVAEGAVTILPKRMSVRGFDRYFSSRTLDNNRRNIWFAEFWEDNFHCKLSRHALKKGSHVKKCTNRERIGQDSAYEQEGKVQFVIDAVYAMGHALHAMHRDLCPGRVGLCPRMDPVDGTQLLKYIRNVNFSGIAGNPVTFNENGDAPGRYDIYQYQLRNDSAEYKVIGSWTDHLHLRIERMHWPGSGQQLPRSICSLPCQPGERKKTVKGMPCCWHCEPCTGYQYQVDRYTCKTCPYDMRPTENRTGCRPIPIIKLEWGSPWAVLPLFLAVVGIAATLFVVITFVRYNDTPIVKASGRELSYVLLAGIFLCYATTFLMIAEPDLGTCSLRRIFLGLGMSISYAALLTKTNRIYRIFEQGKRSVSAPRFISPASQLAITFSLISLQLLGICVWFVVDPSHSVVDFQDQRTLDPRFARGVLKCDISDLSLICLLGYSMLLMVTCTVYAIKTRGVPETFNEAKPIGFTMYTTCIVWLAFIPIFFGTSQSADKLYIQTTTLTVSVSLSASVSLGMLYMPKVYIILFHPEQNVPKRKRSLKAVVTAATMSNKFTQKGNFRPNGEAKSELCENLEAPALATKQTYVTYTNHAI

For `Cc1sc(Nc2cccc(C#N)n2)nc1-c1cn[nH]c1` [Compound 1-1, 6-(5-Methyl-4-(1H-pyrazol-4-yl)thiazol-2-ylamino)picolinonitrile], the EC50 [1] was 0.1 to 1 µM and the melting point was 331 °C.
Molecule `c1ccc(Nc2nc(-c3c[nH]nc3CC3CC3)cs2)nc1` [Compound 1-6, 4-(3-(Cyclopropylmethyl)-1H-pyrazol-4-yl)-N-(pyridin-2-yl)thiazol-2-amine] has an EC50 [1] of 0.1 to 1 µM.
With `c1ccc(Nc2nc(-c3cn[nH]c3)c(N3CCCC3)s2)nc1` [Compound 1-8, 4-(1H-Pyrazol-4-yl)-N-(pyridin-2-yl)-5-(pyrrolidin-1-yl)thiazol-2-amine] the EC50 [1] was 1 to 10 µM and the melting point was 209 °C.
Work on `Fc1cccc(Nc2nc(-c3cn[nH]c3)c(F)s2)n1` [Compound 1-10, 5-Fluoro-N-(6-fluoropyridin-2-yl)-4-(1H-pyrazol-4-yl)thiazol-2-amine] yielded an EC50 [1] of under 0.1 µM and a melting point of 237 °C.
Molecule `Cc1sc(Nc2ncccn2)nc1-c1cn[nH]c1` [Compound 1-16, 5-Methyl-4-(1H-pyrazol-4-yl)-N-(pyrimidin-2-yl)thiazol-2-amine] has an EC50 [1] of under 0.1 µM and a melting point of 298 to 300 °C.
Work on `Clc1[nH]ncc1-c1csc(Nc2ccccn2)n1` [Compound 1-17, 4-(5-Chloro-1H-pyrazol-4-yl)-N-(pyridin-2-yl)thiazol-2-amine] yielded an EC50 [1] of under 0.1 µM and a melting point of 299 to 304 °C.
With `COCc1sc(Nc2ccccn2)nc1-c1cn[nH]c1` [Compound 1-18, 5-(Methoxymethyl)-4-(1H-pyrazol-4-yl)-N-(pyridin-2-yl)thiazol-2-amine] the EC50 [1] was 0.1 to 1 µM.
`c1ccc(Nc2nc(-c3cn[nH]c3)c(CN3CCOCC3)s2)nc1` [Compound 1-21, 5-(Morpholinomethyl)-4-(1H-pyrazol-4-yl)-N-(pyridin-2-yl)thiazol-2-amine] showed an EC50 [1] of 1 to 10 µM.
Molecule `N#Cc1[nH]ncc1-c1csc(Nc2ccccn2)n1` [Compound 1-26, 4-(2-(Pyridin-2-ylamino)thiazol-4-yl)-1H-pyrazole-5-carbonitrile] has an EC50 [1] of 0.1 to 1 µM.
Work on `Cn1ccc(Nc2nc(-c3cn[nH]c3)cs2)n1` [Compound 1-27, N-(1-Methyl-1H-pyrazol-3-yl)-4-(1H-pyrazol-4-yl)thiazol-2-amine] yielded an EC50 [1] of 1 to 10 µM and a melting point of 209 to 211 °C.
With `CC(=O)NCn1cc(-c2nc(Nc3ccccn3)sc2C)cn1` [Compound 1-61, N-((4-(5-Methyl-2-(pyridin-2-ylamino)thiazol-4-yl)-1H-pyrazol-1-yl)methyl)acetamide] the EC50 [1] was 1 to 10 µM and the melting point was 175 °C and 180 °C.
`CN(C)c1[nH]ncc1-c1csc(Nc2ncccn2)n1` [Compound 1-65, 4-(5-(Dimethylamino)-1H-pyrazol-4-yl)-N-(pyrimidin-2-yl)thiazol-2-amine] gave an EC50 [1] of 1 to 10 µM.
